Data published in ChEMBL document CHEMBL1125706, “An approach to the design of receptor-type-selective non-peptide antagonists of peptidergic receptors: delta opioid antagonists” (J Med Chem, 1991).
Non-standard residues stand in square brackets, D forms with d. Residues, ends and D or L forms follow the SMILES beside them. *: point of attachment. Tyr(Nα,Nα-allyl2) = C=CCN(CC=C)[C@@H](Cc1ccc(O)cc1)C(=O)*; Aib = CC(C)(N)C(=O)O

How the values were obtained:
[1] = target: T1, Opioid receptors; mu & delta (Homo sapiens) (UniProt P41143+P35372); test: Ke selectivity ratio (mu/delta) of the compound; assay type: protein assay
[2] = target: T2, Opioid receptors; delta & kappa (Homo sapiens) (UniProt P41145+P41143); test: Ki selectivity ratio (kappa/delta) of the compound; assay type: protein assay
[3] = target: T1, Opioid receptors; mu & delta (Homo sapiens); test: Ki selectivity ratio (mu/delta) of the compound; assay type: protein assay
[4] = target: T2, Opioid receptors; delta & kappa (Homo sapiens); test: Ke selectivity ratio (kappa/delta) of the compound; assay type: protein assay
[5] = target: Delta-type opioid receptor (Mus musculus) (UniProt P32300); test: Compound was evaluated for antagonist potency in the mouse vas deferens preparation using [D-Ala2,D-Leu5]enkephalin (Opioid receptor delta 1); assay type: functional
[6] = target: Kappa-type opioid receptor (Cavia porcellus, UniProt P41144); test: Compound was evaluated for binding affinity of Opioid receptor kappa 1 in guinea pig brain membranes; assay type: cell membranes, Membrane
Sequence of Kappa-type opioid receptor (P41144 whole entry): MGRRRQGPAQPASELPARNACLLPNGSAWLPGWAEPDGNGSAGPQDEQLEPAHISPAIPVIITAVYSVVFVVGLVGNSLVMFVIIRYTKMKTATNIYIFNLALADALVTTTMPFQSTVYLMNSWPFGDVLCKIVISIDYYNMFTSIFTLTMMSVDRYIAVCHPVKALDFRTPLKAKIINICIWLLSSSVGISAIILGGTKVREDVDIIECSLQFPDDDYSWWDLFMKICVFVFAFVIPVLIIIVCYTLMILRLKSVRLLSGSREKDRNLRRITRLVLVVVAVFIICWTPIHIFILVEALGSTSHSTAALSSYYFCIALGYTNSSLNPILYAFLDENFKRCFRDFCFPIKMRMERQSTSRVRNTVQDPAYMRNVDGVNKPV

T2 sequence (P41143 whole entry, looked up): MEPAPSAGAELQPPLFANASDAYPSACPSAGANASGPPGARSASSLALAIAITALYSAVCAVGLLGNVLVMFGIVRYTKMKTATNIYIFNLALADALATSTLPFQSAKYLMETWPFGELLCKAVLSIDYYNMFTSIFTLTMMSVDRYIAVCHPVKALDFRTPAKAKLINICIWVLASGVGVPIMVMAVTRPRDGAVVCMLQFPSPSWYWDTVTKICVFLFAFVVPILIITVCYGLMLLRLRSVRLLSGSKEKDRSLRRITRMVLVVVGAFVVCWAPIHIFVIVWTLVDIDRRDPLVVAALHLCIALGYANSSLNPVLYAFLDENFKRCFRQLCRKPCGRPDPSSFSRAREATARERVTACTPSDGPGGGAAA
T2 sequence (P41145 whole entry, looked up): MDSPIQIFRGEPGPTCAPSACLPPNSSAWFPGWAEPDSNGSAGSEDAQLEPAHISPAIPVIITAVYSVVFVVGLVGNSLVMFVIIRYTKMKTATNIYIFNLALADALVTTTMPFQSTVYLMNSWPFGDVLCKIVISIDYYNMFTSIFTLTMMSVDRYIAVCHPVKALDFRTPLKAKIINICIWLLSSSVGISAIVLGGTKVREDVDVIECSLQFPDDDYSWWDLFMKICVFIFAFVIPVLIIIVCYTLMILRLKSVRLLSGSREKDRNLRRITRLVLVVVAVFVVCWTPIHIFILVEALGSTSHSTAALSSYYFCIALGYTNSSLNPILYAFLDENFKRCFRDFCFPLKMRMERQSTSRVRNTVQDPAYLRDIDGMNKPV
T1 sequence (P35372 whole entry, looked up): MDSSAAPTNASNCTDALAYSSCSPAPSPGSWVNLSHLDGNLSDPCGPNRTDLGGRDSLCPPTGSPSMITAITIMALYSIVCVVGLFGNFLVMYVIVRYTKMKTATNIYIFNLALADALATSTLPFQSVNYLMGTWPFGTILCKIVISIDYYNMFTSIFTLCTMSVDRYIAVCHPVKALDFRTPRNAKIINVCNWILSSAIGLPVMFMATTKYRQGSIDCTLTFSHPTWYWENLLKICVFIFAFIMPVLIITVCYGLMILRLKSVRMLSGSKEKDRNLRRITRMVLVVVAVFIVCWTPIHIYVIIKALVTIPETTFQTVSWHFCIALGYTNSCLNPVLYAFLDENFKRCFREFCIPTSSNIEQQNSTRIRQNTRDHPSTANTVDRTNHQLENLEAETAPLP
T1 sequence (P41143 whole entry, looked up): as the sequence (P41143 whole entry, looked up) above
Sequence of Delta-type opioid receptor (Mus musculus) (P32300 whole entry): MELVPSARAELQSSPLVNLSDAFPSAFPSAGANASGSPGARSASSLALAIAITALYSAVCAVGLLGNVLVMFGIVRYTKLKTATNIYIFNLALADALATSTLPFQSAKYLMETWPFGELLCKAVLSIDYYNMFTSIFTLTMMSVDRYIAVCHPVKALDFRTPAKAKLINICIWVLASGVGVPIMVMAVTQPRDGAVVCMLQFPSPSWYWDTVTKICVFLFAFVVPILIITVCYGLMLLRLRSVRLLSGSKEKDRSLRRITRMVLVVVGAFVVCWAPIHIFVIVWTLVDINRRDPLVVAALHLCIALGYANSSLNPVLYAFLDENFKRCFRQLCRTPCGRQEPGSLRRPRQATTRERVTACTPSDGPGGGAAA

| Structure (SMILES) | Selectivity ratio [1] | Selectivity ratio [2] | Selectivity ratio [3] | Selectivity ratio [4] | Ke [5] [nM] | Ki [6] [µM] |
| --- | --- | --- | --- | --- | --- | --- |
| C=CCN(CC=C)[C@@H](Cc1ccc(O)cc1)C(=O)NC(C)(C)C(=O)NC(C)(C)C(=O)N[C@@H](Cc1ccccc1)C(=O)N[C@@H](CC(C)C)C(=O)O ({Tyr(Nα,Nα-allyl2)}-[Aib][Aib]FL-OH) | > 24 | > 29 | > 29 | > 18 | – | – |
| Oc1ccc2c3c1O[C@H]1c4oc5ccccc5c4C[C@@]4(O)[C@@H](C2)N(CC2CC2)CC[C@]314 [NALTRIBEN] | – | – | – | – | 0.27 | 0.152 |
